Target: T1, human RXFP1 (Homo sapiens, UniProt Q9HBX9)
T1 construct: expressed in transfected cells
T1 sequence (Q9HBX9 1-757): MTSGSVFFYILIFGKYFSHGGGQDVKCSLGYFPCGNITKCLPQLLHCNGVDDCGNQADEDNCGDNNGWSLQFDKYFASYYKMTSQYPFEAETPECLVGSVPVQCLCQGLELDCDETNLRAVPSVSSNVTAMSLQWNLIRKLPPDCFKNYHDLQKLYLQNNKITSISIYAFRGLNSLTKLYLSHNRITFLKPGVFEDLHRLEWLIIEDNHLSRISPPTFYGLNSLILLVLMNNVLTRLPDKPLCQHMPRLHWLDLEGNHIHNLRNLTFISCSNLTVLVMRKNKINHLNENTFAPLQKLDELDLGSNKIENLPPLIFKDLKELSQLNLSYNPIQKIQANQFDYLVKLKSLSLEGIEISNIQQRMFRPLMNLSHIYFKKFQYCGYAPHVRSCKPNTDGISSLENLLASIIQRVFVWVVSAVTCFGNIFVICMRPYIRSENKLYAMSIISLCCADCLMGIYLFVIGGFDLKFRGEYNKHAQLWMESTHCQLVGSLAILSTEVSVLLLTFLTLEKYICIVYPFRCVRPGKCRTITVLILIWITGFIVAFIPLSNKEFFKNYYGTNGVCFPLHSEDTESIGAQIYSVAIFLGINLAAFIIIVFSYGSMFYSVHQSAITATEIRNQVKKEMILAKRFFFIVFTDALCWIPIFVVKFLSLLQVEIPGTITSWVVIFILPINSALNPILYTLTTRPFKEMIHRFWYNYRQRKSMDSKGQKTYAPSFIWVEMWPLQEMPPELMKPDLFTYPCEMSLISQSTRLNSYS
Assay: hRXFP1 HEK293 cAMP assay (HTRF)
Type: cell-based
Details: HEK293 cells stably expressing human RXFP1; 30 min at rt; intracellular cAMP by HTRF
Summary of the method: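 Agonism is measured as cAMP by HTRF, quantified from a standard curve via the 665/590 nm ratio and fitted with a four-parameter logistic equation. Compounds (0.010 nM to 50 μM final, 2% DMSO) were applied for 30 min at rt to human RXFP1-expressing HEK293 cells in assay buffer containing 0.5 mM IBMX.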

`COc1ccc(-c2cccc(CNS(C)(=O)=O)c2)cc1C(=O)Nc1c(C(=O)Nc2ccc(F)c(C(F)(F)F)c2)sc2cc(C(F)(F)F)ccc12` [Example 121, N-(4-fluoro-3-(trifluoromethyl)phenyl)-3-(4-methoxy-3′-(methylsulfon-amidomethyl)-[1,1′-biphenyl]-3-carboxamido)-6-(trifluoromethyl) benzo[b] thiophene-2-carboxamide] and `COc1ccc(-c2cncc(NS(C)(=O)=O)c2)cc1C(=O)Nc1c(C(=O)Nc2ccc(F)c(C(F)(F)F)c2)sc2cc(C(F)(F)F)ccc12` [Example 117, N-(4-fluoro-3-(trifluoromethyl)phenyl)-3-(2-methoxy-5-(5-(methyl-sulfonamido)pyridin-3-yl)benzamido)-6-(trifluoromethyl) benzo[b] thiophene-2-carboxamide] are within 1.5-fold of each other in EC50: 111 nM for the first, 131 nM for the second.

Going from `COc1ccc(C2CCC(C)(O)CC2)cc1C(=O)Nc1c(C(=O)Nc2ccc(F)c(C(F)(F)F)c2)sc2cc(C(F)(F)F)ccc12` (single isomer, unassigned) [Example 37, N-(4-fluoro-3-(trifluoromethyl)phenyl)-3-(5-(4-hydroxy-4-methylcyclohexyl)-2-methoxybenzamido)-6-(trifluoromethyl)benzo[b]thiophene-2-carboxamide] to `COc1ccc(C2CCCN(CCO)CC2)cc1C(=O)Nc1c(C(=O)Nc2ccc(F)c(C(F)(F)F)c2)sc2cc(C(F)(F)F)ccc12` (single isomer, unassigned) [Example 69, N-(4-fluoro-3-(trifluoromethyl)phenyl)-3-(5-(1-(2-hydroxyethyl)azepan-4-yl)-2-methoxy-benzamido)-6-(trifluoromethyl) benzo[b] thiophene-2-carboxamide], the EC50 rises from 158 nM to 760 nM (4.8-fold). The first is the more potent here.

Going from `COc1ccc(C(=O)N2CCOCC2)cc1C(=O)Nc1c(C(=O)Nc2ccc(F)c(C(F)(F)F)c2)sc2cc(C(F)(F)F)ccc12` [Example 221, N-(4-fluoro-3-(trifluoromethyl)phenyl)-3-(2-methoxy-5-(morpholine-4-carbonyl)benzamido)-6-(trifluoromethyl) benzo[b] thiophene-2-carboxamide] to `COc1ccc(-c2nc(N3CCOCC3)no2)cc1C(=O)Nc1c(C(=O)Nc2ccc(F)c(C(F)(F)F)c2)sc2cc(C(F)(F)F)ccc12` [Example 277, N-[4-fluoro-3-(trifluoromethyl)phenyl]-3-{2-methoxy-5-[3-(morpholin-4-yl)-1,2,4-oxadiazol-5-yl]benzamido}-6-(trifluoromethyl)-1-benzothiophene-2-carboxamide], the EC50 falls from 1100 nM to 398 nM (2.8-fold). The second is the more potent here.

Going from `COc1ccc(C2CCCC(NC3COC3)C2)cc1C(=O)Nc1c(C(=O)Nc2ccc(F)c(C(F)(F)F)c2)sc2cc(C(F)(F)F)ccc12` (single isomer, unassigned) [Example 62, N-(4-fluoro-3-(trifluoromethyl)phenyl)-3-(2-methoxy-5-(3-(oxetan-3-ylamino)cyclohexyl)benzamido)-6-(trifluoromethyl) benzo[b] thiophene-2-carboxamide] to `COc1ccc(C2CC2C(=O)NC2CCOCC2)cc1C(=O)Nc1c(C(=O)Nc2ccc(F)c(C(F)(F)F)c2)sc2cc(C(F)(F)F)ccc12` (single isomer, unassigned) [Example 158, N-[4-fluoro-3-(trifluoromethyl)phenyl]-3-(2-methoxy-5-{2-[(oxan-4-yl)carbamoyl]cyclopropyl}benzamido)-6-(trifluoromethyl)-1-benzothiophene-2-carboxamide], the EC50 falls from 1460 nM to 29.8 nM (49-fold). The second is the more potent here.

First: COc1ccc(C2=NOC3COCC23)cc1C(=O)Nc1c(C(=O)Nc2ccc(F)c(C(F)(F)F)c2)sc2cc(C(F)(F)F)ccc12 (single isomer, unassigned) [Example 255, 3-(5-{3aH,4H,6H,6aH-furo[3,4-d][1,2]oxazol-3-yl}-2-methoxy-benzamido)-N-[4-fluoro-3-(trifluoromethyl)phenyl]-6-(trifluoromethyl)-1-benzothiophene-2-carboxamide]
Second: COc1ccc(C2=NOC3CN(C(=O)CO)CC23)cc1C(=O)Nc1c(C(=O)Nc2ccc(F)c(C(F)(F)F)c2)sc2cc(C(F)(F)F)ccc12 (single isomer, unassigned) [Example 243, N-(4-fluoro-3-(trifluoromethyl)phenyl)-3-(5-(5-(2-hydroxyacetyl)-3a,5,6,6a-tetrahydro-4H-pyrrolo[3,4-d]isoxazol-3-yl)-2-methoxy-benzamido)-6-(trifluoromethyl) benzo[b] thiophene-2-carboxamide]
The EC50 of the first is 2.1-fold lower: 498 nM for the first, 1050 nM for the second. The first is the more potent here.

Compared with `COCC(=O)N1CCC(c2ccc(OC)c(C(=O)Nc3c(C(=O)Nc4ccc(F)c(C(F)(F)F)c4)sc4cc(C(F)(F)F)ccc34)c2)C1` (centres unmarked) [Example 144, N-(4-fluoro-3-(trifluoromethyl)phenyl)-3-(2-methoxy-5-(1-(2-methoxyacetyl)pyrrolidin-3-yl)benzamido)-6-(trifluoromethyl) benzo[b] thiophene-2-carboxamide], `COc1ccc(C2CCN(CC(N)=O)C2)cc1C(=O)Nc1c(C(=O)Nc2ccc(F)c(C(F)(F)F)c2)sc2cc(C(F)(F)F)ccc12` (centres unmarked) [Example 156, 3-(5-(1-(2-amino-2-oxoethyl)pyrrolidin-3-yl)-2-methoxy-benzamido)-N-(4-fluoro-3-(trifluoromethyl)phenyl)-6-(trifluoromethyl) benzo[b] thiophene-2-carboxamide] is 1.5-fold higher in EC50: 1430 nM for the first, 2180 nM for the second. The first is the more potent here.

Compared with `COc1ccc(N2CCC[C@@H](NC(=O)CN(C)C)C2)cc1C(=O)Nc1c(C(=O)Nc2ccc(F)c(C(F)(F)F)c2)sc2cc(C(F)(F)F)ccc12` [Example 209, (R)-3-(5-(3-(2-(dimethylamino)acetamido)piperidin-1-yl)-2-methoxy-benzamido)-N-(4-fluoro-3-(trifluoromethyl)phenyl)-6-(trifluoromethyl) benzo[b] thiophene-2-carboxamide], `COc1ccc(N2CCCC(CC(=O)O)C2)cc1C(=O)Nc1c(C(=O)Nc2ccc(F)c(C(F)(F)F)c2)sc2cc(C(F)(F)F)ccc12` (single isomer, unassigned) [Example 65, 2-(1-(3-((2-((4-fluoro-3-(trifluoromethyl)phenyl)carbamoyl)-6-(trifluoromethyl)benzo[b]thiophen-3-yl)carbamoyl)-4-methoxyphenyl)piperidin-3-yl)acetic acid] is 2.2-fold lower in EC50: 1480 nM for the first, 662 nM for the second. The second is the more potent here.

Going from `COc1ccc(-c2cc([C@@H](C)O)on2)cc1C(=O)Nc1c(C(=O)Nc2ccc(F)c(C(F)(F)F)c2)sc2cc(C(F)(F)F)ccc12` [Example 275, (R)-N-(4-fluoro-3-(trifluoromethyl)phenyl)-3-(5-(5-(1-hydroxyethyl)isoxazol-3-yl)-2-methoxy-benzamido)-6-(trifluoromethyl) benzo[b] thiophene-2-carboxamide] to `COc1ccc(C2CCCN(CCO)C2)cc1C(=O)Nc1c(C(=O)Nc2ccc(F)c(C(F)(F)F)c2)sc2cc(C(F)(F)F)ccc12` (centres unmarked) [Example 85, N-(4-fluoro-3-(trifluoromethyl)phenyl)-3-(5-(1-(2-hydroxyethyl)piperidin-3-yl)-2-methoxy-benzamido)-6-(trifluoromethyl) benzo[b] thiophene-2-carboxamide], the EC50 rises from 440 nM to 1110 nM (2.5-fold). The first is the more potent here.

Going from `COc1ccc(C2CC2C(=O)N2CC(O)C2)cc1C(=O)Nc1c(C(=O)Nc2ccc(F)c(C(F)(F)F)c2)sc2cc(C(F)(F)F)ccc12` (centres unmarked) [Example 162, N-(4-fluoro-3-(trifluoromethyl)phenyl)-3-(5-(2-(3-hydroxyazetidine-1-carbonyl)cyclopropyl)-2-methoxy-benzamido)-6-(trifluoromethyl) benzo[b] thiophene-2-carboxamide] to `COc1ccc(C2CC2C(=O)NCC(C)(C)O)cc1C(=O)Nc1c(C(=O)Nc2ccc(F)c(C(F)(F)F)c2)sc2cc(C(F)(F)F)ccc12` (centres unmarked) [Example 166, N-[4-fluoro-3-(trifluoromethyl)phenyl]-3-(5-{2-[(2-hydroxy-2-methylpropyl)carbamoyl]cyclopropyl}-2-methoxy-benzamido)-6-(trifluoromethyl)-1-benzothiophene-2-carboxamide], the EC50 rises from 292 nM to 1630 nM (5.6-fold). The first is the more potent here.

Going from `COc1cc(F)c(C(=O)N2CC3(COC3)C2)cc1C(=O)Nc1c(C(=O)Nc2ccc(F)c(C(F)(F)F)c2)sc2cc(C(F)(F)F)ccc12` [Example 185, 3-(4-fluoro-2-methoxy-5-(2-oxa-6-azaspiro[3.3]heptane-6-carbonyl)benzamido)-N-(4-fluoro-3-(trifluoromethyl)phenyl)-6-(trifluoromethyl) benzo[b] thiophene-2-carboxamide] to `COc1ccc(C2CCCN(C(=O)C(=O)O)C2)cc1C(=O)Nc1c(C(=O)Nc2ccc(F)c(C(F)(F)F)c2)sc2cc(C(F)(F)F)ccc12` (centres unmarked) [Example 81, 2-(3-(3-((2-((4-fluoro-3-(trifluoromethyl)phenyl)carbamoyl)-6-(trifluoromethyl)benzo[b]thiophen-3-yl)carbamoyl)-4-methoxyphenyl)piperidin-1-yl)-2-oxoacetic acid], the EC50 falls from 736 nM to 203 nM (3.6-fold). The second is the more potent here.

Source: US20260265233A1, “BENZOTHIOPHENE DERIVATIVES AS RXFP1 AGONISTS” (BRISTOL-MYERS SQUIBB COMPANY, priority 2021, published 2026)
